Assay results from US8969419B2, “Animal feed compositions and feeding methods” (priority 2009, dated 2015).

Tested on: ruminal microbiota
Assay: Analysis of ruminal samples from cattle fed hop beta acids or Rumensin
Type: in vivo
Details: Rumensin 300 mg/day; for Lactate Concentration, % differ from Control / Isobutyrate Concentration, % differ from Control / Isovalerate Concentration, % differ from Control / Valerate Concentration, % differ from Control / Butyrate Concentration, % differ from Control / Propionate Concentration, % differ from Control / Acetate Concentration, % differ from Control / Total VFA Concentration, % differ from Control: rumen fluid; for Lactate Concentration, % differ from Control / Isobutyrate Concentration, % differ from Control / Isovalerate Concentration, % differ from Control / Valerate Concentration, % differ from Control / Butyrate Concentration, % differ from Control / Propionate Concentration, % differ from Control / Acetate Concentration, % differ from Control / Total VFA Concentration, % differ from Control / Ruminal Ammonia Concentration, % differ from Control / Ruminal Acetate:Propionate Ratio, % differ from Control: β-acids averaged over five levels; for Ruminal pH, % differ from Control: β-acids averaged over five levels (10-300 mg/day)
Procedure: Background: Cattle were fed concentrate-based diets and were administered beta acids of hops (0, 10, 80, 160, 240, or 300 mg/day) or Rumensin (300 mg/day) to determine effects of the additives on ruminal microbiota. Rumen samples were periodically taken and pH, acetate, propionate, butyrate isobutyrate, valerate isovalerate, and total volatile fatty acid (VFA) concentrations were measured. Materials and Methods: A 10% beta acids solution (standard aqueous alkaline solution of beta acids) was subjected to dilution. Dilutions of the 10% beta acids solution were prepared (with water and KOH additions) such that solutions were prepared that contained the proper amount of beta acids (per ml) to provide proper cattle dose in 30 ml total volume (e.g. a solution was prepared that had 10 mg/30 ml (pH of 10.5) and was used to treat the 10 mg/steer/day group; another solution was prepared that had 80 mg/30 ml (pH 10.5) and was used to treat the 80 mg/steer/day group). Each animal was treated with it appropriate 30 ml of solution, once per day. A subset of ruminal fluid samples representing each of the seven treatment groups (control, five levels of beta acids and Rumensin). The beta acid levels were 10, 80 and 160, 240 and 300 mg/animal daily. The rumen fluid sampling was performed at prescribed intervals following feeding. Rumen samples were analyzed using standard accepted methodologies, and concentrations of parameters of interest determined. Results: Described in Tables I through XI are the averaged results from the 24 hour feeding period (i.e. average of analysis results for each parameter, complied from samples taken and analyzed over the course of the 24 hour feeding period) for: the control animals, the animals receiving beta acids treatments (average value at all five levels), and Rumensin treated animals. The Tables provide the maximum, minimum and average values observed. The beta acids (β-acids) and Rumensin values are reported as a percentage of the control. Positive percentage values mean that the treatment (beta acids or Rumensin) exceeded the control by the specified amount (negative values less than control by specified amount.

SMILES: CCC1(C2OC(C3OC(O)(CO)C(C)CC3C)CC2C)CCC(C2(C)CCC3(CC(O)C(C)C(C(C)C(OC)C(C)C(=O)O)O3)O2)O1 (stereo not drawn) [Rumensin, 4-[2-[5-ethyl-5-[5-[6-hydroxy-6-(hydroxymethyl)-3,5-dimethyl-oxan-2-yl]-3-methyl-oxolan-2-yl]oxolan-2-yl]-9-hydroxy-2,8-dimethyl-1,6-dioxaspiro[4.5]dec-7-yl]-3-methoxy-2-methyl-pentanoic acid]
- Lactate Concentration, % differ from Control (Ave over 24 hrs of feeding, control 0.6 mM): 10.2%
- Isobutyrate Concentration, % differ from Control (Ave over 24 hrs of feeding, control 0.79 mM): 6.84%
- Isovalerate Concentration, % differ from Control (Ave over 24 hrs of feeding, control 1.25 mM): 33.4%
- Valerate Concentration, % differ from Control (Ave over 24 hrs of feeding, control 3.06 mM): 31.7%
- Butyrate Concentration, % differ from Control (Ave over 24 hrs of feeding, control 9.3 mM): 0.6%
- Propionate Concentration, % differ from Control (Ave over 24 hrs of feeding, control 29 mM): 27.9%
- Acetate Concentration, % differ from Control (Ave over 24 hrs of feeding, control 38 mM): 9%
- Total VFA Concentration, % differ from Control (Ave over 24 hrs of feeding, control 82 mM): 14.9%
- Ruminal Ammonia Concentration, % differ from Control (Ave over 24 hrs of feeding, control 3.4 mM): −54.1%
- Ruminal Acetate:Propionate Ratio, % differ from Control (Ave over 24 hrs of feeding, control A:P ratio 1.50): −20.4%
- Ruminal pH, % differ from Control (Ave value over 24 hrs of feeding, control pH 5.69): −4.45%
- Isobutyrate Concentration, % differ from Control (Max over 24 hrs of feeding, control 1.00 mM): 5.00%
- Isovalerate Concentration, % differ from Control (Max over 24 hrs of feeding, control 1.81 mM): 26.0%
- Lactate Concentration, % differ from Control (Max over 24 hrs of feeding, control 3.0 mM): 66.7%
- Valerate Concentration, % differ from Control (Max over 24 hrs of feeding, control 3.80 mM): 39.5%
- Butyrate Concentration, % differ from Control (Max over 24 hrs of feeding, control 12.6 mM): −8.7%
- Propionate Concentration, % differ from Control (Max over 24 hrs of feeding, control 40 mM): 12.5%
- Acetate Concentration, % differ from Control (Max over 24 hrs of feeding, control 49 mM): −2%
- Total VFA Concentration, % differ from Control (Max over 24 hrs of feeding, control 107 mM): 0.9%
- Ruminal Ammonia Concentration, % differ from Control (Max over 24 hrs of feeding, control 7.2 mM): −41.7%
- Ruminal Acetate:Propionate Ratio, % differ from Control (Max over 24 hrs of feeding, control A:P ratio 1.73): 4.0%
- Ruminal pH, % differ from Control (Max value over 24 hrs of feeding, control pH 6.60): −5.45%
- Lactate Concentration, % differ from Control (Min over 24 hrs of feeding, control 0.2 mM): 0.0%
- Isobutyrate Concentration, % differ from Control (Min over 24 hrs of feeding, control 0.57 mM): 17.54%
- Isovalerate Concentration, % differ from Control (Min over 24 hrs of feeding, control 0.88 mM): 50.0%
- Valerate Concentration, % differ from Control (Min over 24 hrs of feeding, control 1.9 mM): 36.8%
- Butyrate Concentration, % differ from Control (Min over 24 hrs of feeding, control 6.6 mM): −75.8%
- Propionate Concentration, % differ from Control (Min over 24 hrs of feeding, control 18 mM): 22.2%
- Acetate Concentration, % differ from Control (Min over 24 hrs of feeding, control 28 mM): 11%
- Total VFA Concentration, % differ from Control (Min over 24 hrs of feeding, control 57 mM): 14.0%
- Ruminal Ammonia Concentration, % differ from Control (Min over 24 hrs of feeding, control 0.7 mM): −54.3%
- Ruminal Acetate:Propionate Ratio, % differ from Control (Min over 24 hrs of feeding, control A:P ratio 1.30): −25.4%
- Ruminal pH, % differ from Control (Min value over 24 hrs of feeding, control pH 5.18): −2.70%
